Assay results taken from publication PMC12615753, “Glutathione as a taste modulator: molecular mechanisms of interaction with umami and sweet taste receptors” (Food Chemistry: Molecular Sciences, 2025).

Target: T1, hTAS1R1 Q278A/rTAS1R3 (Homo sapiens, UniProt Q7RTX1, Q278A)
T1 construct: expressed in transfected cells; host or cells: HEK293T/17 (ATCC CRL-11268)
T1 sequence (Q7RTX1 21-841 Q278A): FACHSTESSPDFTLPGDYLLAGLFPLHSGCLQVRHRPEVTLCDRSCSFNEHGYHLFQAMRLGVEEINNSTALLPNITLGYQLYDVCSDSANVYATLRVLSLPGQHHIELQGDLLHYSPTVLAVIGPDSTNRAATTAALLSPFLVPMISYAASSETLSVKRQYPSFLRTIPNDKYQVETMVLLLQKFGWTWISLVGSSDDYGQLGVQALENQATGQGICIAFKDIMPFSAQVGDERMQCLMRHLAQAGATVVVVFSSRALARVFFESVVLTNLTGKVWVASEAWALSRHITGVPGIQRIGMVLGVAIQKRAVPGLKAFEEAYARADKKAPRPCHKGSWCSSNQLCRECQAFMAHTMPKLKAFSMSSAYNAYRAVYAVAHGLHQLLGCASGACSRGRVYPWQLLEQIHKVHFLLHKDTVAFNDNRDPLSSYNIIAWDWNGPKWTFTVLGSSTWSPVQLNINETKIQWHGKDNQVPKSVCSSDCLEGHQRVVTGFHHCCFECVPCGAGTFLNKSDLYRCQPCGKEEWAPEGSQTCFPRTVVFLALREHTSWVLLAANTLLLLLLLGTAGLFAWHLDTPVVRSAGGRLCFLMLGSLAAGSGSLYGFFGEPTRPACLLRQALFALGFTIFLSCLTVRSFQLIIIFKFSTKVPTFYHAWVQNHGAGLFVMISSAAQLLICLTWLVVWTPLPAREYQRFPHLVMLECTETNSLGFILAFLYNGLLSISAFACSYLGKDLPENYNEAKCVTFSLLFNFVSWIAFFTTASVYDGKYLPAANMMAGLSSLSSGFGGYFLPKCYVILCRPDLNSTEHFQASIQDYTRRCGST
T1 sequence (Q923K1 21-858 partner): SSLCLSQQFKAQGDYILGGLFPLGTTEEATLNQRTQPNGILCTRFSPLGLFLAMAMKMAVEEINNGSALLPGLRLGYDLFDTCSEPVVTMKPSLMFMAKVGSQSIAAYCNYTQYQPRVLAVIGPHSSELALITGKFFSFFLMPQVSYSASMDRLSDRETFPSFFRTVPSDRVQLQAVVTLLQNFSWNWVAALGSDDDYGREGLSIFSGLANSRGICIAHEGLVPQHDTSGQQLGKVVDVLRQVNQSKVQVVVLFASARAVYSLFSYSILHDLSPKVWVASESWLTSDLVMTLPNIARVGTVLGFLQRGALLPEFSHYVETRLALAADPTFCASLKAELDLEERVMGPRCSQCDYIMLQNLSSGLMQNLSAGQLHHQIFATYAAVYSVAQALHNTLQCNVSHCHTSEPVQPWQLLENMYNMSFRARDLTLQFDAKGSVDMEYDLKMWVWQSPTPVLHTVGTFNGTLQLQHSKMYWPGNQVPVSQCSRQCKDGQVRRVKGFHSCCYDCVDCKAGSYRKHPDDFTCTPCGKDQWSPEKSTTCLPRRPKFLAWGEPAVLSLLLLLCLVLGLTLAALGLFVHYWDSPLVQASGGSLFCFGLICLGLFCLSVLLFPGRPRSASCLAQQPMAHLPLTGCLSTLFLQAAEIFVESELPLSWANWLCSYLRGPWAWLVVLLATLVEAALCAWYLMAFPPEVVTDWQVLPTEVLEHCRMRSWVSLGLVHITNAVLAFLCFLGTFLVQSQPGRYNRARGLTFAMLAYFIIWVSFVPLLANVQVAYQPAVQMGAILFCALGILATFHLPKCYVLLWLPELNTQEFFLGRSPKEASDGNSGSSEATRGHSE
Test: Calcium assay, hTAS1R1 mutant co-expressed with rTAS1R3
Format: cell-based, rat

N[C@@H](CCC(=O)N[C@@H](CS)C(=O)NCC(=O)O)C(=O)O [GSH, γ-L-glutamyl-L-cysteinyl-glycine]
EC50: 3.42 ± 0.073 mM
effect of the added compound (1 mM) on the response to L-Glu (Q278A): synergy was observed
response to the agonist alone, vs WT (Q278A): significantly increased the initial amplitude
Max ∆F/F0 (Q278A, GSH): 1.46 ± 0.01
R1 = mutant EC50/WT EC50 (Q278A, GSH): 1.4
